The results in this text go back to PubChem BioAssay (NCI).

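Where inhibition never reached the appropriate level, the endpoint shown equals the highest concentration tested. Otherwise, values were interpolated linearly from a five-concentration, 48-hour dose response in 96-well plates. GI50 marks 50% less growth. TGI denotes the concentration required for complete inhibition of growth.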 Where a SMILES comes first, the peptide text is derived from it. The star is where a group is joined. Boc = CC(C)(C)OC(=O)*

Some test systems named below: PC-3 prostate; MCF7 breast; A498 renal; SK-MEL-2 melanoma; OVCAR-5 ovarian; BT-549 breast; NCI/ADR-RES ovarian; MDA-MB-231 breast; T-47D breast; SNB-75 CNS.
Common to all, as to assay: NCI anticancer screen, dose series, 48 h

Turning to `COC(=O)c1cc2c(s1)-c1nccc3c1c(nc1ccccc13)C2=O`, the GI50 in the assay with PC-3 prostate was more than 100 µM; in the assay with MCF7 breast, 26.1 µM; with A498 renal it was more than 100 µM; with SK-MEL-2 melanoma it was more than 100 µM; in the assay with OVCAR-5 ovarian, more than 100 µM; in the assay with BT-549 breast, more than 100 µM. The GI50 was more than 100 µM with NCI/ADR-RES ovarian, 28.6 µM in the assay on MDA-MB-231 breast and 62.8 µM in the assay on T-47D breast. For the same molecule, the TGI with PC-3 prostate, in the assay with MCF7 breast, with A498 renal, in the assay on SK-MEL-2 melanoma, in the assay on OVCAR-5 ovarian and in the assay with BT-549 breast was more than 100 µM in each case. For the same molecule, the TGI with NCI/ADR-RES ovarian, with MDA-MB-231 breast and in the assay on T-47D breast was more than 100 µM in each case.
With `COc1ccc(Cn2c(N)c(S(=O)(=O)c3ccc(Cl)cc3)c3nc(C#N)c(C#N)nc32)cc1`, the GI50 in the assay with PC-3 prostate is 33.5 µM; in the assay with MCF7 breast, 5.85 µM; with SK-MEL-2 melanoma it was 29.8 µM; with OVCAR-5 ovarian it was 12.2 µM; in the assay with BT-549 breast, 34.3 µM; with NCI/ADR-RES ovarian, 1.15 µM. For the same molecule, the results for the GI50 with MDA-MB-231 breast, in the assay on T-47D breast and with SNB-75 CNS were 3.1 µM, more than 50 µM and more than 50 µM, respectively. The TGI in the assay with PC-3 prostate was more than 50 µM; with MCF7 breast, more than 50 µM; with SK-MEL-2 melanoma, more than 50 µM; in the assay on OVCAR-5 ovarian, more than 50 µM; with BT-549 breast it was more than 50 µM; in the assay on NCI/ADR-RES ovarian, 6 µM. Besides, the TGI is 20.9 µM in the assay with MDA-MB-231 breast, more than 50 µM in the assay with T-47D breast and more than 50 µM with SNB-75 CNS.
As to `O=C(CNS(=O)(=O)Cc1ccccc1)NNc1ccccc1`, the TGI with PC-3 prostate, in the assay on MCF7 breast, in the assay on SK-MEL-2 melanoma, with OVCAR-5 ovarian, in the assay on BT-549 breast and with NCI/ADR-RES ovarian was more than 100 µM throughout. Further, the TGI in the assay with MDA-MB-231 breast, in the assay with T-47D breast and in the assay on SNB-75 CNS was more than 100 µM each time.
As for `CCOC(=O)c1c(-c2ccc(OC)cc2)c(C#N)c2c(C#N)c(N)nn2c1N`, the GI50 in the assay on MCF7 breast is 3.31 µM; in the assay on A498 renal, 1.73 µM; with SK-MEL-2 melanoma it was 3.35 µM; with OVCAR-5 ovarian, 5.65 µM; with BT-549 breast, 2.65 µM; in the assay on NCI/ADR-RES ovarian, 3.57 µM. The results for the GI50 with MDA-MB-231 breast, in the assay on T-47D breast and in the assay on SNB-75 CNS were 3.63 µM, 2.93 µM and 1.84 µM, respectively. For the same molecule, the TGI in the assay on MCF7 breast is more than 100 µM; in the assay on A498 renal, 7.88 µM; with SK-MEL-2 melanoma, 26.5 µM; in the assay on OVCAR-5 ovarian, more than 100 µM; in the assay with BT-549 breast, 28.1 µM; in the assay on NCI/ADR-RES ovarian, more than 100 µM. Moreover, the TGI in the assay with MDA-MB-231 breast was found to be 23.2 µM; in the assay on T-47D breast, 33.1 µM; in the assay on SNB-75 CNS, 7.59 µM.
In the case of `COC(=O)c1ccc(-c2c(C#N)[n+](=O)c3cc(Cl)c(Cl)cc3n2[O-])cc1`, the GI50 is 9.79 µM in the assay with PC-3 prostate; 19.2 µM with MCF7 breast; 38.6 µM with A498 renal; 19.2 µM in the assay on OVCAR-5 ovarian; 16.8 µM in the assay on BT-549 breast; 23.2 µM with NCI/ADR-RES ovarian. The values for the GI50 in the assay with MDA-MB-231 breast, with T-47D breast and in the assay on SNB-75 CNS were 14.4 µM, 2.48 µM and 20.2 µM, respectively. The TGI in the assay with PC-3 prostate was 27.9 µM; in the assay with MCF7 breast, 42.1 µM; in the assay on A498 renal, more than 100 µM; in the assay with OVCAR-5 ovarian, 39.4 µM; in the assay with BT-549 breast it was 34 µM; with NCI/ADR-RES ovarian, 75.6 µM. For the same molecule, the results for the TGI in the assay with MDA-MB-231 breast, in the assay with T-47D breast and in the assay with SNB-75 CNS were 33.5 µM, 6.08 µM and 39.8 µM, respectively.
For `O=C(Nc1cc(C(F)(F)F)ccc1Cl)c1cccc(NC2=C(Cl)C(=O)N(Cc3ccccc3)C2=O)c1`, the GI50 in the assay with PC-3 prostate is 14.1 µM; in the assay with MCF7 breast, 5.76 µM; in the assay on A498 renal it was 28.5 µM; with SK-MEL-2 melanoma, 30.8 µM; with BT-549 breast, 15.6 µM; in the assay with MDA-MB-231 breast, 32.7 µM. Moreover, the GI50 with T-47D breast is 81.1 µM; with SNB-75 CNS it was more than 100 µM. The TGI in the assay with PC-3 prostate is more than 100 µM; with MCF7 breast, 85.6 µM; with A498 renal, 92.9 µM; with SK-MEL-2 melanoma it was more than 100 µM; with BT-549 breast, more than 100 µM; in the assay with MDA-MB-231 breast it was more than 100 µM. For the same molecule, the TGI in the assay on T-47D breast and with SNB-75 CNS was more than 100 µM in each case.
As to `CC(C)=CCc1cc2c(cc1O)OC[C@H]1c3cc4c(cc3O[C@@H]21)OCO4`, the TGI in the assay on PC-3 prostate was more than 100 µM; in the assay with MCF7 breast, 58.7 µM; in the assay with OVCAR-5 ovarian, more than 100 µM; with BT-549 breast it was 95.3 µM; with NCI/ADR-RES ovarian, 76.1 µM; with MDA-MB-231 breast it was more than 100 µM. For the same molecule, the TGI with T-47D breast and in the assay with SNB-75 CNS was more than 100 µM in each case.
`S=c1[nH]c2c(Cl)c(Cl)c(Cl)c(Cl)c2[nH]1`: the TGI with PC-3 prostate was 77.6 µM; with MCF7 breast, 40.5 µM; in the assay with A498 renal, 46.5 µM; with OVCAR-5 ovarian it was 65 µM; in the assay on BT-549 breast, 52.4 µM; with NCI/ADR-RES ovarian it was 46.5 µM. The figures for the TGI in the assay with MDA-MB-231 breast and in the assay with T-47D breast were 47.9 µM and more than 100 µM, respectively.
For `C=COC(=O)N[C@H]1CCc2cc(OC)c(OC)c(OC)c2-c2ccc(SC)c(=O)cc21`, the TGI with PC-3 prostate is more than 100 µM; with MCF7 breast, 59.8 µM; with A498 renal, 0.395 µM; in the assay on SK-MEL-2 melanoma, 1.73 µM; with OVCAR-5 ovarian, more than 75 µM; in the assay on BT-549 breast, less than 0.01 µM. For the same molecule, the TGI in the assay on MDA-MB-231 breast is 1.88 µM; in the assay with T-47D breast, more than 100 µM; with SNB-75 CNS, 14.4 µM.
For `COc1ccc(C(O)(CCC(C)C)C(CN2CCOCC2)c2ccc(Cl)cc2)cc1` (stereo not drawn), the GI50 in the assay on PC-3 prostate is 6.03 µM; in the assay on MCF7 breast, 10.4 µM; in the assay with A498 renal, 10.9 µM; in the assay with OVCAR-5 ovarian, 12.2 µM; in the assay with BT-549 breast, 14.9 µM; in the assay on NCI/ADR-RES ovarian it was 11.1 µM. Also, the values for the GI50 in the assay on MDA-MB-231 breast, in the assay on T-47D breast and in the assay with SNB-75 CNS were 12.1 µM, 11.4 µM and 13 µM, respectively. Moreover, the TGI turned out to be 21 µM with PC-3 prostate; 24.6 µM with MCF7 breast; 23.4 µM with A498 renal; 25.7 µM in the assay on OVCAR-5 ovarian; 30 µM in the assay with BT-549 breast; 34.2 µM with NCI/ADR-RES ovarian. In addition, the results for the TGI in the assay on MDA-MB-231 breast, in the assay on T-47D breast and in the assay with SNB-75 CNS were 27.2 µM, 26.9 µM and 35.2 µM, respectively.
As to `O=c1[nH]c2ccc(O)cc2o1`, the TGI with PC-3 prostate, in the assay on MCF7 breast, with A498 renal, in the assay with OVCAR-5 ovarian, in the assay with BT-549 breast and with NCI/ADR-RES ovarian was more than 100 µM each time. In addition, the TGI in the assay on MDA-MB-231 breast, with T-47D breast and in the assay with SNB-75 CNS was more than 100 µM in each case.
For `CN(C)CCSc1cc(-c2ccccc2)c2ccccc2n1`, the TGI in the assay on PC-3 prostate was found to be 24.6 µM; with MCF7 breast it was 27.8 µM; in the assay on A498 renal it was 33 µM; in the assay on SK-MEL-2 melanoma, 28.6 µM; in the assay on OVCAR-5 ovarian, 26.2 µM; in the assay on BT-549 breast, 24.8 µM. Moreover, the TGI with NCI/ADR-RES ovarian is 31.5 µM; in the assay with MDA-MB-231 breast, 24 µM; with T-47D breast, 34.4 µM.
Regarding `COc1ccc(-c2cc(/C=C/C(=O)c3ccc(OC)c(OC)c3)[nH]n2)cc1`, the GI50 with PC-3 prostate was 1.45 µM; with MCF7 breast, 0.417 µM; with A498 renal, 1.42 µM; in the assay on OVCAR-5 ovarian, 1.65 µM; in the assay with BT-549 breast, 1.68 µM; with NCI/ADR-RES ovarian, 3.44 µM. Further, the GI50 in the assay with MDA-MB-231 breast was 2 µM; in the assay on T-47D breast it was 1.6 µM; with SNB-75 CNS it was 1.55 µM. The TGI in the assay with PC-3 prostate turned out to be 3.46 µM; with MCF7 breast, 1.76 µM; in the assay with A498 renal it was 3.55 µM; with OVCAR-5 ovarian, 4.09 µM; with BT-549 breast, 3.53 µM; in the assay on NCI/ADR-RES ovarian, 24.8 µM. For the same molecule, the TGI in the assay with MDA-MB-231 breast amounted to 6.63 µM; in the assay on T-47D breast it was 5.15 µM; in the assay with SNB-75 CNS, 3.84 µM.
In the case of `COC(=O)C(C)NC(=O)C(CCSC)NC(=O)C(Cc1ccccc1)NC(=O)OC(C)(C)C` (stereo not drawn) (Boc-Phe-Met-Ala-OMe; configuration not given here), the TGI with PC-3 prostate, in the assay on MCF7 breast, in the assay on SK-MEL-2 melanoma, in the assay on OVCAR-5 ovarian, in the assay with BT-549 breast and in the assay on NCI/ADR-RES ovarian was more than 100 µM throughout. The TGI in the assay on MDA-MB-231 breast, with T-47D breast and with SNB-75 CNS was more than 100 µM each time. Also, the GI50 is 31.7 µg/mL with MCF7 breast; 31.6 µg/mL in the assay with OVCAR-5 ovarian; 18.3 µg/mL with BT-549 breast; 33.2 µg/mL with MDA-MB-231 breast; 99.7 µg/mL with SNB-75 CNS.
For `COC(=O)c1ccc2c(c1)/C(=C\c1cc(Br)c(O)c(Br)c1)C(=O)N2`, the GI50 is 7.68 µM in the assay with PC-3 prostate; 8.01 µM in the assay on MCF7 breast; 3.48 µM in the assay on A498 renal; 13.5 µM with OVCAR-5 ovarian; 10.6 µM in the assay on BT-549 breast; 15.7 µM with NCI/ADR-RES ovarian. Also, the GI50 with MDA-MB-231 breast is 6.83 µM; with T-47D breast, 8.72 µM; with SNB-75 CNS, 5.4 µM. For the same molecule, the TGI is more than 25 µM in the assay with PC-3 prostate; more than 25 µM in the assay on MCF7 breast; 11 µM in the assay on A498 renal; more than 25 µM with OVCAR-5 ovarian; more than 25 µM with BT-549 breast; more than 25 µM in the assay on NCI/ADR-RES ovarian. The TGI with MDA-MB-231 breast, with T-47D breast and with SNB-75 CNS was more than 25 µM throughout.
